Measurements reported in patent EP2816108A1, “Transformed fungus with vitamin K dependent activity” (priority 2013, dated 2014).

Assays:
[1] = tested on: Aspergillus nidulans strain YR23.5; assay: Vitamin K growth test on solid media (Petri dishes), vitamin K quantified in lyophilised mycelium; type: cell-based; details: in 100 mg DW (dry weight) of lyophilized fungal mycelium; growth tests in Petri dishes, 3 days
Experimental: Solid Media. Minimal media plates including vitamin K (vitamin K1, Fluka, 99%) were prepared. On top of the agar medium, sterile cellophane was placed to inhibit direct contact between the media and fungal cells. Spores of strain YR23.5 were plated in a concentration of ca. 10E+5 per plate. After 3 days of growth, harvesting was done by scraping off the mycelium from cellophane. Then the mycelium was frozen and pulverized in liquid nitrogen. The powder was subsequently lyophilised and sent for vitamin K analysis to LUFA-ITL (Landwirtschaftliche Untersuchungs- und Forschungsanstalt Institut für Tiergesundheit u Lebensmittelqualität GmbH, Kiel, Germany). Liquid media. The strain YR23.5 was pre-cultivated for 48 hours in 2 x 250 ml of liquid minimal media at 37°C, 180 rpm in Erlenmeyer flasks. Mycelium was harvested by filtration, washed and re-suspended in sterile minimal medium and separated into four equal aliquots of roughly 250 mg wet weight (corresponding to roughly 50 mg dry weight). Culture volume was set to 30 ml. […]
The vitamin uptake ability of A.nidulans was studied with growth tests in Petri dishes. In addition, vit.K uptake and unspecific resorption of vit.K to the fungal cell wall was analyzed in liquid cultures. According to growth tests in Petri dishes, 752 µg of vitamin K was quantified in 100 mg DW (dry weight) of lyophilized fungal mycelium. […]

[2] = tested on: Aspergillus nidulans strain YR 23.5; assay: Vitamin K uptake in liquid cultures, viable versus heat-inactivated mycelium; type: cell-based; details: for Uptake (vitamin K / DW): active minus inactive
Experimental: Solid Media. Minimal media plates including vitamin K (vitamin K1, Fluka, 99%) were prepared. On top of the agar medium, sterile cellophane was placed to inhibit direct contact between the media and fungal cells. Spores of strain YR23.5 were plated in a concentration of ca. 10E+5 per plate. After 3 days of growth, harvesting was done by scraping off the mycelium from cellophane. Then the mycelium was frozen and pulverized in liquid nitrogen. The powder was subsequently lyophilised and sent for vitamin K analysis to LUFA-ITL (Landwirtschaftliche Untersuchungs- und Forschungsanstalt Institut für Tiergesundheit u Lebensmittelqualität GmbH, Kiel, Germany). Liquid media. The strain YR23.5 was pre-cultivated for 48 hours in 2 x 250 ml of liquid minimal media at 37°C, 180 rpm in Erlenmeyer flasks. Mycelium was harvested by filtration, washed and re-suspended in sterile minimal medium and separated into four equal aliquots of roughly 250 mg wet weight (corresponding to roughly 50 mg dry weight). Culture volume was set to 30 ml. Two of these cultures received different vitamin K amounts, final concentration: 0.5 mg/mL and 0.05 mg/mL vitamin K (Konakion, micelles suspension, Roche, 10 mg/mL) and were grown for further 8 hours. Mock controls were grown in parallel for 8 hours without receiving vitamin K. After the growth phase the fungal cells were inactivated by boiling in the microwave oven (3 x 5 min at max. energy level), and subsequently vitamin K was added to the mock controls (final concentration, 0.5 and 0.05 mg/mL vitamin K). The inactivated cultures were further incubated in the rotary shaker for 30 minutes. All cultures were harvested at the same time point. Harvested biomass was washed, frozen and ground in liquid nitrogen, lyophilised and sent for analysis to LUFA-ITL (Landwirtschaftliche Untersuchungs- und Forschungsanstalt Institut für Tiergesundheit u Lebensmittelqualität GmbH, Kiel, Germany).
The vitamin uptake ability of A.nidulans was studied with growth tests in Petri dishes. In addition, vit.K uptake and unspecific resorption of vit.K to the fungal cell wall was analyzed in liquid cultures. According to growth tests in Petri dishes, 752 µg of vitamin K was quantified in 100 mg DW (dry weight) of lyophilized fungal mycelium. However, due to the set-up of this experiment it remains unclear if the vitamin K is either attached to the cell wall or actively taken up into the fungal cell. To clarify this, a second growth test comparing viable and heat-inactivated mycelium was performed. […] The maximal amount of vit.K unspecifically attached to the cell wall is approximately 20 µg per 100 mg (dry weight) of fungal mycelium. The majority of vitamin K was found in viable cells. The viable mycelium was able to take up approximately 8% of the vitamin K supplied through the culture medium (Hill et al.), more precisely 1,14 mg / 100 mg mycelium from the […] vit.K supplied in total (Table 2). Table 2: Vitamin K1 updake ability of Aspergillus nidulans strain YR 23.5. Vitamin K was added to liquid cultures, the final concentration as indicated. Fungal mycelium was inactivated by boiling in a microwave oven. Values which were obtained with inactivated fungal cell mass indicate the unspecific association of vitamin K to the fungal mycelium.

CC1=C(C/C=C(\C)CCC[C@H](C)CCC[C@H](C)CCCC(C)C)C(=O)c2ccccc2C1=O [vitamin K, vitamin K1] was tested, and the “vitamin K quantified in lyophilized fungal mycelium” value [1] was 752 µg, the “Uptake (vitamin K / DW)” value ([2]; fungal cell mass active, vitamin K added 50 µg/ml) was 169,1 µg/100 mg and the “Absolute quantities (vitamin K / DW)” value ([2]; fungal cell mass active, vitamin K added 50 µg/ml, liquid culture, 8 hours) was 183,0 µg/100 mg. For the same compound, the “Uptake (vitamin K / DW)” value ([2]; fungal cell mass active, vitamin K added 500 µg/ml) was 1122,1 µg/100 mg, the “Absolute quantities (vitamin K / DW)” value ([2]; fungal cell mass active, vitamin K added 500 µg/ml, liquid culture, 8 hours, DW = fungal mycelium (dry weight)) was 1140,0 µg/100 mg and the “Absolute quantities (vitamin K / DW)” value ([2]; fungal cell mass inactive (boiled in microwave oven), vitamin K added 50 µg/ml, unspecific association with mycelium) was 13,9 µg/100 mg. The “Absolute quantities (vitamin K / DW)” value ([2]; fungal cell mass inactive (boiled in microwave oven), vitamin K added 500 µg/ml, unspecific association with mycelium) was 17,9 µg/100 mg, the “maximal amount of vit.K unspecifically attached to the cell wall” value ([2]; per 100 mg (dry weight) of fungal mycelium, inactivated cultures) was “approximately 20 µg per 100 mg” and the “vitamin K taken up of the vitamin K supplied through the culture medium” value ([2]; viable mycelium) was “approximately 8%”. For the same compound, the “vitamin K taken up by viable mycelium” value ([2]; viable mycelium, from the 50 mg vit.K supplied in total) was 1,14 mg / 100 mg mycelium.
